{"source": "paper PMC4900628", "about": "“Critical Evaluation of P2X7 Receptor Antagonists in Selected Seizure Models” (PLoS ONE, 2016)", "key": {"[1]": {"set-up": "method as in earlier work", "conditions": "45.5 mg/kg i.p. every 48h for 1 month, ref [11] of S1 File, cited from earlier work"}, "[2]": {"test_system": "Iba 1 and GFAP immunoreactivity", "experiment": "Iba 1 and GFAP immunohistochemistry, hippocampus of PTZ-kindled rats", "format": "in vivo", "conditions": "hippocampus CA3, 24h after the 25th PTZ injection, pre-treated with AFC or JNJ", "protocol": "One day after the last kindling session (after the 25th injection), vehicle/PTZ and compound/PTZ-treated rats as well as vehicle-only-treated or non-treated (naïve) rats as controls were transcardially perfused under deep CO2-anesthesia with 0.9% NaCl-solution, 2% paraformaldehyde (PFA, in 0.1 M sodium acetate buffer, pH 6.5) and 2% PFA/0.1% glutaraldehyde (in 0.1 M sodium borate buffer, pH 8.5) (see [73]). Brains were removed immediately and placed for 24 h in 2% PFA without glutaraldehyde (in 0.1 M sodium borate buffer, pH 8.5) at 4°C for post-fixation. […]\nFor immunohistochemical studies, free-floating slices were incubated in 0.1 M Sørensen’s phosphate buffer (SPP) containing 1% H2O2 for 25 min. […] The immunoreactivity was evaluated using a light microscope (Axioskop, Zeiss) equipped with a CCD digital camera (AxioCam, ICc 1, Zeiss). For quantitative analysis of the GFAP and Iba 1-staining, images (20x magnification) from the hippocampal CA3 region of vehicle-only (controls) and vehicle/PTZ-treated animals (n = 10) were recorded at constant microscope adjustment and were evaluated with the LSM (LSM 510 Meta, Zeiss) using the semiautomatic image analysis software “Histogram” function. Significant differences were determined by calculating the abundance of densely stained pixels (pixel values lower than 67% of the background) using a two-tailed Wilcoxon rank sum test. […]"}, "[3]": {"experiment": "Plasma and brain concentration in mice (co-administration with AEDs)", "format": "in vivo", "conditions": "PTZ-T", "protocol": "Blood was collected intracardially by heart […] pipettes supplemented with heparin-Na (ratiopharm, Ulm, Germany; 10μl of 5.000 I.U./ml) and separated by centrifuging (1500xg for 10 min) at 6-8°C. The plasma was stored at -20°C in plastic tubes. After blood sample collection, rats were decapitated and brains were quickly dissected. After removing the adherent blood by tissue paper and cutting off the cerebellum, the samples were fresh frozen using liquid nitrogen. Brain tissue was stored at -80°C and delivered to the different laboratories on dry ice. For mice (groups with n = 6), a similar procedure was used for the preparation of plasma and brain samples. In experiments in which AFC was co-administered with carbamazepine or ethosuximide, drug concentrations in plasma and brain were estimated to detect potential pharmacokinetic interactions. Samples from experiments with AFC were analysed at the Lead Discovery Center (Dortmund, Germany). Briefly, AFC, carbamazepine and ethosuximide were extracted from plasma and homogenized brain by protein precipitation using acetonitrile. Resulting filtrates were analysed by liquid chromatography tandem-mass spectrometry (LC-MS/MS) using a Prominence UFLC system (Shimadzu, Duisburg, Germany) coupled to a QTrap 5500 instrument (ABSciex, Darmstadt, Germany). The compounds were separated on a Zorbax Eclipse Plus C18 column (Agilent Technologies, Santa Clara, CA, USA) with an acetonitrile/water gradient containing 0.1% formic acid as solvent. Chromatographic conditions and mass spectrometer parameters were optimized for each analyte. Plasma and brain concentrations of the compounds were calculated by means of a standard curve. Data were analysed using SigmaPlot (vers. 12.0, Systat Software, Erkrath, Germany) and SPSS (IBM SPSS Statistics 20, […], Germany), respectively. Results are expressed as mean ± SEM. […] In the MES-T, the current intensity inducing tonic hindlimb extensions in 50% of the mice (CC50 values with confidence limits for 95% probability) and the statistical significance was calculated using Probit analysis (SPSS). […] In the PTZ-T, the number of animals in the group with clonic seizures and the latency time were analysed using Fisher's exact probability test and the Mann-Whitney rank sum test, respectively. For multiple comparisons of the latency time a one-way ANOVA with the Holm-Sidak post hoc test was used. The influence of AFC on the plasma and brain concentrations of the antiepileptic drugs was statistical compared using the same procedure. In the PTZ-kindling model, the mean seizure stage within a group was calculated in relation to the number of PTZ-injections. Statistical comparison between vehicle- and compound-treated groups in this model was performed with two-way repeated measures ANOVA, followed by the Holm-Sidak post hoc test. The mean number of PTZ-injections needed to produce the first generalized seizure (≥ stage 3 convulsions) in the vehicle- versus compound-treated groups was statistically compared using a Mann-Whitney rank sum test. In fully kindled rats, the calculated mean seizure stage within a group after vehicle- and compound-treatment were compared using a paired t-test. P < 0.05 was the accepted minimum level of significance."}}}
{"smiles": "CCOc1ccc(Nc2ccc(/C(=C3C=C/C(=[N+](/CC)Cc4cccc(S(=O)(=O)[O-])c4)C=C/3C)c3ccc(N(CC)Cc4cccc(S(=O)(=O)O)c4)cc3C)cc2)cc1", "note": "[Brilliant Blue G]", "values": [{"measurement": "brain-plasma ratio in mice", "setting": "[1]", "value": 0.02}, {"measurement": "brain concentrations in mice", "setting": "[1]; spectrophotometric analysis", "value": 0.15, "unit": "µM"}]}
{"smiles": "O=C(NCC1(N2CCN(c3ccccc3)CC2)CCOCC1)c1cccnc1Sc1ccccc1", "note": "[JNJ-47965567, N-[[4-(4-phenyl-piperazin-1-yl)tetrahydro-2H-pyran-4-yl]-methyl]-2-(phenyl-thio) nicotinamide]", "values": [{"measurement": "immunostaining for Iba 1 and GFAP compared to vehicle/PTZ-treated animals", "setting": "[2]", "value": "clearly reduced"}]}
{"smiles": "CCC1(C)CC(=O)NC1=O", "note": "(stereo not drawn) [Ethosuximide, ethosuximide]", "values": [{"measurement": "blood concentrations of ethosuximide on co-application of AFC", "setting": "[3]", "value": "did not significantly modulate"}, {"measurement": "brain concentration of ethosuximide alone", "setting": "[3]; ethosuximide 100 mg/kg i.p., n = 6", "value": "377.3 ± 14.3", "unit": "µM"}, {"measurement": "brain concentration of ethosuximide with AFC 50 mg/kg i.p.", "setting": "[3]; ethosuximide 100 mg/kg i.p., n = 6, significantly increased", "value": "453.9 ± 18.7", "unit": "µM"}]}
